“Also recorded” adds a separate entry of the source. No end group written: not given here.
Key:
[1] = test system: MIP1α; assay: Expression of inflammatory cytokine in brain (real-time qPCR); format: in vivo, mouse; details: chronic daily 50 μg/kg BW; Hgsnat^P304L mice at 5 months; vs saline
Experimental: RNA was isolated from snap-frozen brain, kidney and liver tissues using the TRIzol reagent (Invitrogen) and reverse-transcribed using the iScript™ Reverse Transcription Supermix (Bio RAD #1708840) according to the manufacturer's protocol, qPCR was performed using a LightCycler® 96 Instrument (Roche) and SsoFast™ EvaGreen® Supermix with Low ROX (Bio RAD #1725211) according to the manufacturer's protocol. RLP32 mRNA was used as a reference control.
Starting from 3 weeks of age, WT C57B16 and homozygous Hgsnat^P304L male and female mice were randomly divided in treatment and control groups (6-13 mice/sex/genotype/treatment; see Table I). The control group was daily administered with saline (5 μL to each nostril), while for the treatment group, saline was supplemented with 125 µg of AVP6/mL, which would result in a dose of approximately 50 μg/kg BW/day. The peptide formulation was prepared once, aliquoted and kept frozen at −80° C. until use. At 4 months, all mice were studied by EPM, OF, YM and NOR behavioral tests. Administration of the drug or saline was continued through the days on which the assays were conducted. Then approximately at 5 months 4-5 mice in each group were sacrificed. […] When such signs were detected, the mice were studied by ERG and sacrificed within 1-2 days. […]

[2] = test system: Hgsnat-Geo and Hgsnat^P304L MPS IIIC mice; assay: Novel Object Recognition test; format: in vivo, mouse; details: single dose 17 hours before the test
[3] = test system: Hgsnat-Geo and Hgsnat^P304L MPS IIIC mice; assay: Novel Object Recognition test; format: in vivo, mouse
Experimental: Method: Novel object recognition test that studies working memory of mice by measuring their ability to discriminate a familiar from a novel object. AVP6 was administered intranasally at a daily dose 50 μg/kg (5 μl/nostril) for 10 consecutive days before the experimental day.
Novel object recognition test was used for assessing short-term recognition memory. Mice were placed individually in a 44×33×20 cm (length×width×height) testing chamber with white Plexiglas walls for 10 min habituation period and returned to their home cage. The next day, mice were placed in the testing chamber for 10 min with two identical objects (red plastic towers, 3×1.5×4.5 cm), returned to the home cages, and 1 hour later, placed back into the testing chamber in the presence of one of the original objects and one novel object (a blue plastic base, 4.5×4.5×2 cm) for 10 min. After each mouse, the test arena as well as the plastic objects were cleaned with 70% ethanol to avoid olfactory cue bias. The discrimination index (DI) was calculated as the difference of the exploration time between the novel and old object divided by total exploration time.
Starting from 3 weeks of age, WT C57B16 and homozygous Hgsnat^P304L male and female mice were randomly divided in treatment and control groups (6-13 mice/sex/genotype/treatment; see Table I). The control group was daily administered with saline (5 μL to each nostril), while for the treatment group, saline was supplemented with 125 µg of AVP6/mL, which would result in a dose of approximately 50 μg/kg BW/day. The peptide formulation was prepared once, aliquoted and kept frozen at −80° C. until use. At 4 months, all mice were studied by EPM, OF, YM and NOR behavioral tests. Administration of the drug or saline was continued through the days on which the assays were conducted. Then approximately at 5 months 4-5 mice in each group were sacrificed. Their blood plasma was collected, and their tissues were either snap-frozen or fixed and cryopreserved to analyze CNS pathology as described above. For the remaining mice, treatment was continued and their behaviour was studied again at the age of 6 months using OF. NOR and YM tests. Starting from the age of 8 months, Hgsnat^P304L treated and untreated mice were daily studied for the signs of urinary retention. When such signs were detected, the mice were studied by ERG and sacrificed within 1-2 days. […]
The ability of the peptide to improve the memory deficits was tested in the 4-months-old Hgsnat-Geo mice using the Novel Object Recognition (NOR) test that studies working memory of mice by measuring their ability to discriminate a familiar object a novel one. […] Immediately after the test, mice were sacrificed and the levels of mature BDNF protein were measured in their hippocampi by immunoblot.

[4] = test system: CA1 pyramidal neurons in acute hippocampal slices from Hgsnat-Geo and Hgsnat^P304L mice; assay: Miniature excitatory postsynaptic currents (mEPSC), whole cell voltage clamp in acute hippocampal slices; format: cell-based, mouse; details: for mEPSC amplitude and frequency deficits: Hgsnat-Geo and Hgsnat^P311L (P304L) slices
Experimental: Models and developmental time points: Hippocampal slices from Hgsnat-Geo and Hgsnat^P304L mice; P14-20 and P45-60.
Method: Whole cell voltage clamp electrophysiology recordings (miniature synaptic currents) were conducted on CA1 pyramidal neurons in acute hippocampal slices.
Acute hippocampal slices were prepared as follows. Briefly, animals were anaesthetized deeply with isoflurane and decapitated. The brain was dissected carefully and transferred rapidly into an ice-cold (0-4° C.) solution containing the following (in mM): 250 sucrose, 2 KCl, 1.25 NaH2PO4, 26 NaHCO3, 7 MgSO4, 0.5 CaCl2 and 10 glucose, pH 7.4. The solution was oxygenated continuously with 95% O2 and 5% CO2, 330-340 mOsm/L. Transverse hippocampal slices (thickness, 300 μm) were cut using a vibratome (VT1000S; Leica Microsystems), transferred to a bath at room temperature (23° C.) with standard ACSF at pH 7.4 containing the following (in mM): 126 NaCl, 3 KCl, 1 NaH2PO^4, 25 NaHCO3, 2 MgSO4, 2 CaCl2), 10 glucose, continuously saturated with 95% 02 and 5% CO2 and allowed to recover for 1 h. During the experiments, slices were transferred to the recording chamber at physiological temperature (30-33° C.) continuously perfused with standard ACSF, as described above, at 2 ml/min. Pyramidal CA1 neurons from the hippocampus were identified visually using a 40× water immersion objective. Whole-cell patch-clamp recordings were obtained from single cells in voltage- or current-clamp mode and only 1 cell per slice was recorded to enable post-hoc identification and immunohistochemical processing. Recording pipettes (4-6 MΩ) were filled with a K-gluconate based solution for voltage-clamp recordings (in mM): 130 K-gluconate, 10 KCl, 5 diNa-phosphocreatine. 10 HEPES, 2.5 MgCl2, 0.5CaCl2,1 EGTA, 3 ATP-Tris, 0.4 GTP-Li, 0.3% biocytin, pH 7.2-7.4, 280-290 mOsm/L.
After obtaining whole cell configuration, passive membrane properties were monitored for 5 min and current clamp recordings were done to measure action potential characteristics. […]. Cells were voltage clamped at −70 mV for mEPSCs recording and then held at 0 mV (calculated from the reversal potential of Cl) for mIPSCs recording. Data acquisition (filtered at 2-3 kHz and digitized at 15 kHz; Digidata 1440A, Molecular Devices, CA, USA) was performed using the Axopatch 200B amplifier and the Clampex 10.6 software (Molecular Devices). Both mEPSCs and mIPSCs were recorded for 7 min and a running template on a stable baseline (minimum of 30 events) was used for the analysis of miniature events on MiniAnalysis. Clampfit 10.2 software was used for analysis of action potential characteristics and other passive membrane properties.
This example tested AVP6's effect on synaptic signaling in acute hippocampal slices of MPS IIIC (both Hgsnat^Geo and Hgsnat^P304L) mice. […]

AVP6: N-terminally acetylated Semax, a nootropic peptide having the amino acid sequence of MEHFPGP (SEQ ID NO:1) (Ac-MEHFPGP)
expression levels of inflammatory cytokine MIP1α in the brain [1]: reduced expression levels
behaviour in Novel Object Recognition test after single dose [2]: did not improve behaviour
short-term memory deficit, Novel Object Recognition ([3]; chronic 50 μg/kg BW/day, Hgsnat^P304L mice at 6 months): partially rescues deficits in spatial and short-term memory
short-term memory deficit (discrimination and recognition indexes), Novel Object Recognition ([3]; chronic daily intranasal 50 μg/kg BW from 3 weeks, Hgsnat^P304L mice at 4 months): rescues deficits in spatial and short-term memory; also recorded: show the rescue of all above deficits
working (short-term) memory deficit: discrimination index and recognition index, Novel Object Recognition ([3]; intranasal 50 μg/kg daily for 10 consecutive days, 4-month-old Hgsnat-Geo mice): significantly recovered memory deficits; also recorded: rescues working memory deficits; also recorded: This deficit is rescued
discrimination index and recognition index in WT mice, Novel Object Recognition ([3]; intranasal 50 μg/kg daily for 10 days, WT mice vs saline): trend for an increase
mEPSC amplitude and frequency deficits ([4]; 10 μM bath application, P14-20): recovered deficits in mEPSC amplitude and frequency; also recorded: deficit is rescued
mEPSC amplitude and frequency deficits ([4]; 10 μM bath application, P45-60): recovered deficits in mEPSC amplitude and frequency; also recorded: deficit is rescued
mEPSC amplitude and frequency in WT animals ([4]; 10 μM bath application, P45-60, WT slices): trend for an increase
reduced amplitude and frequency of mEPSC ([4]; acute bath application, MPSIIIC mouse hippocampal slices (Example 1, FIG. 1)): significant restoration
